Measurements: the supplement of paper PMC10307832

Legend:
Assay in all cases: relative viability (nuclei count vs DMSO), 5 days (fraction); higher = more cells survive
MK-2206 + Navitoclax = compound: NC1(c2ccc(-c3nc4ccn5c(=O)[nH]nc5c4cc3-c3ccccc3)cc2)CCC1 [MK-2206] + CC1(C)CCC(c2ccc(Cl)cc2)=C(CN2CCN(c3ccc(C(=O)NS(=O)(=O)c4ccc(N[C@H](CCN5CCOCC5)CSc5ccccc5)c(S(=O)(=O)C(F)(F)F)c4)cc3)CC2)C1 [Navitoclax] (partner 0.5 µM)
How it was run: (§1)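 Relative viability equals treated-well nuclei counts divided by vehicle-well nuclei counts. Counts came from 4× images of lung cancer cell lines grown in 1536-well plates for 5 days after pin-tool dosing on the day after seeding. Dosing used one drug alone or a fixed anchor-drug dose plus five library-drug doses (not always all listed) in √10 steps, and values are medians of duplicate plates.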

Pictilisib + Foretinib = compound: CS(=O)(=O)N1CCN(Cc2cc3nc(-c4cccc5[nH]ncc45)nc(N4CCOCC4)c3s2)CC1 [Pictilisib] + COc1cc2c(Oc3ccc(NC(=O)C4(C(=O)Nc5ccc(F)cc5)CC4)cc3F)ccnc2cc1OCCCN1CCOCC1 [Foretinib] (partner 0.25 µM)
How it was run: as §1

Pictilisib + Decitabine = compound: CS(=O)(=O)N1CCN(Cc2cc3nc(-c4cccc5[nH]ncc45)nc(N4CCOCC4)c3s2)CC1 [Pictilisib] + Nc1ncn([C@H]2C[C@H](O)[C@@H](CO)O2)c(=O)n1 [Decitabine] (partner 2 µM)
How it was run: as §1

Pictilisib + Navitoclax = compound: CS(=O)(=O)N1CCN(Cc2cc3nc(-c4cccc5[nH]ncc45)nc(N4CCOCC4)c3s2)CC1 [Pictilisib] + CC1(C)CCC(c2ccc(Cl)cc2)=C(CN2CCN(c3ccc(C(=O)NS(=O)(=O)c4ccc(N[C@H](CCN5CCOCC5)CSc5ccccc5)c(S(=O)(=O)C(F)(F)F)c4)cc3)CC2)C1 [Navitoclax] (partner 0.5 µM)
How it was run: as §1

MK-2206 + Trametinib = compound: NC1(c2ccc(-c3nc4ccn5c(=O)[nH]nc5c4cc3-c3ccccc3)cc2)CCC1 [MK-2206] + CC(=O)Nc1cccc(-n2c(=O)n(C3CC3)c(=O)c3c(Nc4ccc(I)cc4F)n(C)c(=O)c(C)c32)c1 [Trametinib] (partner 0.02 µM)
How it was run: as §1

| Cell Line | relative viability (MK-2206 + Navitoclax; first compound 0.01 µM) | relative viability (MK-2206 + Navitoclax; first compound 0.03162 µM) | relative viability (MK-2206 + Navitoclax; first compound 0.3162 µM) | relative viability (MK-2206 + Navitoclax; first compound 1 µM) | relative viability (Pictilisib + Foretinib; first compound 0.02 µM) | relative viability (Pictilisib + Foretinib; first compound 0.06325 µM) | relative viability (Pictilisib + Foretinib; first compound 0.6325 µM) | relative viability (Pictilisib + Foretinib; first compound 2 µM) | relative viability (Pictilisib + Decitabine; first compound 0.02 µM) | relative viability (Pictilisib + Decitabine; first compound 0.06325 µM) | relative viability (Pictilisib + Decitabine; first compound 0.6325 µM) | relative viability (Pictilisib + Decitabine; first compound 2 µM) | relative viability (Pictilisib + Navitoclax; first compound 0.02 µM) | relative viability (Pictilisib + Navitoclax; first compound 0.06325 µM) | relative viability (Pictilisib + Navitoclax; first compound 0.6325 µM) | relative viability (Pictilisib + Navitoclax; first compound 2 µM) | relative viability (MK-2206 + Trametinib; first compound 0.01 µM) | relative viability (MK-2206 + Trametinib; first compound 0.03162 µM) | relative viability (MK-2206 + Trametinib; first compound 0.3162 µM) | relative viability (MK-2206 + Trametinib; first compound 1 µM) |
| --- | --- | --- | --- | --- | --- | --- | --- | --- | --- | --- | --- | --- | --- | --- | --- | --- | --- | --- | --- | --- |
| HOP-62 | 0.909 | 1.24 | 1.02 | 1.1 | 1.05 | 1.16 | 1.05 | 1.03 | 0.215 | 0.283 | 0.267 | 0.329 | 0.955 | 1.1 | 1.06 | 1.01 | 0.381 | 0.368 | 0.334 | 0.328 |
| LC-2-ad | 0.423 | 0.506 | 0.288 | 0.3 | 0.959 | 0.948 | 0.662 | 0.491 | 0.758 | 0.836 | 0.661 | 0.637 | 0.606 | 0.415 | 0.17 | 0.143 | 0.924 | 0.886 | 0.933 | 0.927 |
| SW 900 |  |  |  |  | 0.93 | 0.815 | 0.774 | 0.533 | 0.367 | 0.524 | 0.45 | 0.418 |  |  |  |  | 0.809 |  | 0.702 | 0.86 |
| NCI-H322M | 1.14 | 1.13 | 1.25 | 1.1 | 0.936 | 0.985 | 0.792 | 0.559 | 0.735 | 0.696 | 0.656 | 0.43 | 1.23 | 1.22 | 0.956 | 1.14 | 0.475 | 0.505 | 0.495 | 0.546 |
| SK-LU-1 | 1.01 | 0.992 | 1.08 | 0.874 | 0.878 | 0.892 | 0.652 | 0.422 | 0.612 | 0.695 | 0.559 | 0.525 | 0.972 | 1.04 | 0.624 | 0.41 | 0.556 | 0.513 | 0.449 | 0.431 |
| NCI-H1734 | 0.848 | 0.85 | 0.584 | 0.681 | 0.918 | 0.641 | 0.579 | 0.35 | 0.472 | 0.481 | 0.418 | 0.338 | 0.797 | 0.874 | 0.554 | 0.264 | 0.633 | 0.646 | 0.535 | 0.478 |
| HCC-44 | 0.868 | 0.962 | 0.868 | 0.818 |  |  |  |  | 0.92 | 0.958 | 0.926 | 0.94 | 0.974 | 0.848 | 0.866 | 0.622 | 0.927 | 1.02 | 1.11 | 1.04 |
| NCI-H1703 | 1.15 | 0.961 | 0.621 | 0.776 | 0.34 | 0.372 | 0.321 | 0.27 |  |  |  |  | 1.38 | 0.805 | 0.305 | 0.204 |  |  |  |  |
| NCI-H2170 | 0.65 | 0.485 | 0.546 | 0.512 | 1 | 0.983 | 0.827 | 0.772 | 0.46 | 0.445 | 0.462 | 0.366 | 0.619 | 0.487 | 0.452 | 0.231 | 0.943 | 0.898 | 0.878 | 0.87 |
| NCI-H1395 | 1.17 | 1.63 | 1.12 | 0.927 | 0.966 | 1.01 | 0.962 | 0.588 | 0.708 | 0.798 | 0.652 | 0.5 | 1.17 | 1.27 | 0.99 | 0.6 | 1.02 | 1.16 | 0.804 | 0.897 |
| NCI-H1355 | 0.961 | 0.828 | 0.961 | 0.819 | 0.931 | 0.868 | 0.849 | 0.398 | 0.336 | 0.388 | 0.383 | 0.331 | 0.941 | 0.902 | 0.828 | 0.501 | 0.407 | 0.414 | 0.363 | 0.378 |
| NCI-H1650 | 1.11 | 1 | 1.06 | 1.02 | 1.25 | 1.39 | 1.03 | 0.441 | 0.41 | 0.39 | 0.438 | 0.432 | 1.21 | 1.19 | 0.828 | 0.31 | 0.54 | 0.649 | 0.612 | 0.643 |
| IA-LM | 0.724 | 0.835 | 0.801 | 0.669 | 1.2 | 1.14 | 0.894 | 0.518 |  |  |  |  | 0.777 | 0.898 | 0.766 | 0.309 |  |  |  |  |
| NCI-H1666 | 0.953 | 0.927 | 0.81 | 0.655 | 0.987 | 0.968 | 0.914 | 0.66 | 0.659 | 0.719 | 0.702 | 0.574 | 0.972 | 0.835 | 0.62 | 0.438 | 0.925 | 0.79 | 0.807 | 0.892 |
| HCC-78 | 0.735 | 0.875 | 0.732 | 0.488 | 0.488 | 0.5 | 0.392 | 0.308 | 0.604 | 0.607 | 0.6 | 0.402 | 0.809 | 0.594 | 0.45 | 0.231 | 0.746 | 0.832 | 0.786 | 0.907 |
